Laboratory results from the CheMixHub viscosity set.

Experiment: xn = mol fraction of the nth substance listed

CCCCCCCC + CC(C)O
viscosity [mPa·s]
Settings | 293.15 K | 298.15 K | 303.15 K | 308.15 K
101 kPa, x2 = 0.0569 | – | 0.515 | – | 0.446
101 kPa, x2 = 0.1093 | – | 0.518 | – | 0.45
101 kPa, x2 = 0.1441 | – | 0.524 | – | 0.451
101 kPa, x2 = 0.2343 | – | 0.542 | – | 0.466
101 kPa, x2 = 0.3228 | – | 0.568 | – | 0.486
101 kPa, x2 = 0.3517 | – | 0.579 | – | 0.497
101 kPa, x2 = 0.4196 | – | 0.611 | – | 0.523
101 kPa, x2 = 0.5016 | – | 0.665 | – | 0.561
101 kPa, x2 = 0.5603 | – | 0.717 | – | 0.601
101 kPa, x2 = 0.6122 | – | 0.773 | – | 0.643
101 kPa, x2 = 0.7012 | – | 0.9 | – | 0.732
101 kPa, x2 = 0.7937 | – | 1.088 | – | 0.877
101 kPa, x2 = 0.9122 | – | 1.496 | – | 1.177
101 kPa, x2 = 0.9475 | – | 1.68 | – | 1.315
101.32 kPa, x2 = 0.0518 | 0.539 | 0.507 | 0.476 | –
101.32 kPa, x2 = 0.0896 | 0.542 | 0.51 | 0.479 | –
101.32 kPa, x2 = 0.212 | 0.562 | 0.526 | 0.494 | –
101.32 kPa, x2 = 0.282 | 0.58 | 0.542 | 0.507 | –
101.32 kPa, x2 = 0.4103 | 0.644 | 0.596 | 0.552 | –
101.32 kPa, x2 = 0.6027 | 0.83 | 0.752 | 0.685 | –
101.32 kPa, x2 = 0.6988 | 0.985 | 0.883 | 0.795 | –
101.32 kPa, x2 = 0.7988 | 1.225 | 1.088 | 0.967 | –
101.32 kPa, x2 = 0.9007 | 1.624 | 1.429 | 1.25 | –
101.32 kPa, x2 = 0.9496 | 1.961 | 1.69 | 1.482 | –

O=[N+]([O-])c1ccccc1 + CC(C)O
viscosity [mPa·s]
Settings | 293.15 K | 298.15 K | 303.15 K | 308.15 K | 313.15 K | 318.15 K | 323.15 K
100 kPa, x1 = 0.081 | 2.112 | 1.849 | 1.625 | 1.428 | 1.247 | 1.101 | 0.9776
100 kPa, x1 = 0.16 | 1.892 | 1.679 | 1.494 | 1.333 | 1.166 | 1.039 | 0.9339
100 kPa, x1 = 0.2401 | 1.742 | 1.56 | 1.402 | 1.264 | 1.111 | 1.003 | 0.9084
100 kPa, x1 = 0.3501 | 1.624 | 1.468 | 1.332 | 1.212 | 1.082 | 0.9879 | 0.9036
100 kPa, x1 = 0.44 | 1.597 | 1.446 | 1.318 | 1.203 | 1.088 | 1.002 | 0.9207
100 kPa, x1 = 0.56 | 1.637 | 1.482 | 1.347 | 1.232 | 1.134 | 1.05 | 0.9715
100 kPa, x1 = 0.6499 | 1.703 | 1.54 | 1.401 | 1.281 | 1.187 | 1.105 | 1.024
100 kPa, x1 = 0.7399 | 1.795 | 1.622 | 1.475 | 1.349 | 1.256 | 1.171 | 1.087
100 kPa, x1 = 0.85 | 1.92 | 1.739 | 1.586 | 1.454 | 1.355 | 1.262 | 1.174
100 kPa, x1 = 0.9399 | 2.022 | 1.842 | 1.685 | 1.55 | 1.442 | 1.342 | 1.25
101.33 kPa, x1 = 0.0512 | – | 1.881 | 1.567 | – | – | – | –
101.33 kPa, x1 = 0.1088 | – | 1.67 | 1.476 | – | – | – | –
101.33 kPa, x1 = 0.1732 | – | 1.529 | 1.344 | – | – | – | –
101.33 kPa, x1 = 0.2456 | – | 1.462 | 1.297 | – | – | – | –
101.33 kPa, x1 = 0.3281 | – | 1.459 | 1.277 | – | – | – | –
101.33 kPa, x1 = 0.4228 | – | 1.45 | 1.292 | – | – | – | –
101.33 kPa, x1 = 0.5325 | – | 1.439 | 1.323 | – | – | – | –
101.33 kPa, x1 = 0.661 | – | 1.523 | 1.398 | – | – | – | –
101.33 kPa, x1 = 0.8145 | – | 1.603 | 1.434 | – | – | – | –

c1ccccc1 + CC(C)O
viscosity [mPa·s], 101 kPa
Settings | x1 = 0.0575 | x1 = 0.144 | x1 = 0.225 | x1 = 0.362 | x1 = 0.558 | x1 = 0.651 | x1 = 0.732 | x1 = 0.798 | x1 = 0.886
298.15 K | 1.733 | 1.369 | 1.139 | 0.89 | 0.69 | 0.639 | 0.614 | 0.607 | 0.602
303.15 K | 1.512 | 1.206 | 1.015 | 0.8 | 0.643 | 0.593 | 0.572 | 0.565 | 0.561
308.15 K | 1.325 | 1.068 | 0.905 | 0.73 | 0.592 | 0.551 | 0.531 | 0.527 | 0.524
313.15 K | 1.16 | 0.948 | 0.814 | 0.668 | 0.556 | 0.511 | 0.497 | 0.493 | 0.493
318.15 K | 1.026 | 0.852 | 0.732 | 0.616 | 0.518 | 0.475 | 0.465 | 0.463 | 0.461
